Results reported in US20250136581A1, “SUBSTITUTED TRIAZOLE DERIVATIVE, PREPARATION METHOD THEREFOR, PHARMACEUTICAL COMPOSITION THEREOF, AND USE THEREOF” (SHANGHAI SIMR BIOTECHNOLOGY CO., LTD., priority 2021, published 2025).

Biological target: human α5β3γ2 receptors (α5-GABAA receptor) (Homo sapiens (Human), UniProt P18507+P31644)
Assay: 3H-flunitrazepam competition binding, human α5β3γ2 GABAA receptor
Settings: HEK293 cell membranes, 1 nM 3H-flunitrazepam; read-out: α5-GABAAR Ki
Method: The affinity of the compound to each subtype of GABAA receptor was determined by competing for the binding of ^3H-flunitrazepam to HEK293 cells stably expressing human α1β3γ2, α2β3γ2, α3β3γ2, and α5β3γ2 receptors.
The cells were suspended in 50 mM Tris-HCl buffer (pH=7.4), homogenized 10 times on ice with a homogenizer for 20 seconds, and centrifuged at 1000 g for 10 minutes at 4° C. The supernatant was collected, and the above steps were repeated. The supernatant was centrifuged at 4° C. (33800 g; Thermo, rotor: A27-8×50) for 60 minutes, and the precipitate was resuspended in Tris buffer (50 mM Tris-HCl, 10 mM MgCl2, 0.5 mM EDTA, 10% glycerol). Protein was measured (BCA method, Pierce), and 1 mL aliquots were prepared and stored at −80° C.
The radioligand competition binding assay was performed in a 200 μL system (96-well plate) containing 100 μL of cell membrane. The concentration of ^3H-flunitrazepam was 1 nM and the concentration of the test compound was in the range of […]. Flumazenil was used as a control. 1 μL of 2 mM flumazenil (final concentration […]) was added to the low signal control well (Low control, LC), and 1 μL of DMSO was added to the high signal control well (High control, HC). The final concentration of target membrane protein was […]. All test compound sample storage solutions were 10 mM. The working concentration of the samples was to dilute all the samples to 0.2 mM with DMSO, followed by 4-fold serial gradient dilutions for a total of 8 concentration gradients. The 96-well plate was sealed with a sealing film, and then incubated on a shaker at room temperature for 1 hour. At the same time, the GF/C filter plate was soaked in soaking buffer (0.3% PEI, stored at 4° C.) for at least 0.5 hours. After the binding incubation was completed, the cells were collected onto a GF/C filter plate using a cell harvester. The plate was washed four times with washing buffer (50 mM Tris-HCl, pH 7.4, stored at 4° C.). After drying in a 50° C. oven for 1 hour, the bottom of the dried GF/C filter plate was sealed. The residual radioactivity on the filter membrane was detected using liquid scintillation counting. 50 μL of scintillation fluid was added to each well, and the plate was sealed. The readings were taken using a Microbeta2. The inhibitory activity of the test sample on the binding of ^3H-flunitrazepam to GABAA receptor membrane proteins was calculated, and the IC50 of each test sample was calculated by dose-effect curve fitting (GraphPad Prism 5 software), and the Ki of the sample was calculated from the IC50, thus evaluating the binding ability of the sample to the various subtypes of GABAA receptors.

4-(6-((1-(4-(Difluoromethyl)phenyl)-4-methyl-1H-1,2,3-triazol-5-yl)methoxy)pyridin-3-yl)-1-methyl-1,4-diazepan-2-one [Example 17]
Ki: 4.32 nM

Cc1nnn(-c2ccc(C(F)F)cc2)c1COc1ccc(N2CC[C@@H]3CCNC(=O)[C@@H]3C2)nn1 (relative stereo) [Example 123, cis-7-(6-((1-(4-(Difluoromethyl)phenyl)-4-methyl-1H-1,2,3-triazol-5-yl)methoxy)pyridazin-3-yl)octahydro-2,7-naphthyridin-1(2H)-one]
Ki: 7.2 nM

Cc1nnn(-c2ccc(C(F)F)cc2)c1COc1ccc(N2CCN3CC(C(C)(C)C)NC(=O)[C@@H]3C2)nn1 (single isomer, unassigned) [Example 202]
Ki: 2.32 nM

Cc1nnn(-c2ccc(C(F)F)cc2)c1COc1ccc(N2CCN3CC(c4cnn(C)c4)NC(=O)[C@@H]3C2)nn1 (single isomer, unassigned) [Example 211]
Ki: 2.02 nM

COC1CCN(c2ccc(OCc3c(C)nnn3-c3ccc(C(F)F)cc3)nn2)C1 (stereo not shown) [Example 1, 3-((1-(4-(Difluoromethyl)phenyl)-4-methyl-1H-1,2,3-triazol-5-yl)methoxy)-6-(3-methoxypyrrolidin-1-yl)pyridazine]
Ki: 1.98 nM

Cc1nnn(-c2ccc(C(F)F)cc2)c1COc1ccc(N2CCCNC(=O)C2)nn1 [Example 4, 4-(6-((1-(4-(Difluoromethyl)phenyl)-4-methyl-1H-1,2,3-triazol-5-yl)methoxy)pyridazin-3-yl)-1,4-diazepan-2-one]
Ki: 7.25 nM

Cc1nnn(-c2ccc(C(F)F)cc2)c1COc1ccc(N2CCN3C(=O)COC[C@@H]3C2)nn1 [Example 9, (S)-8-(6-((1-(4-(Difluoromethyl)phenyl)-4-methyl-1H-1,2,3-triazol-5-yl)methoxy)pyridazin-3-yl)hexahydropyrazino[2,1-c][1,4]oxazin-4(3H)-one]
Ki: 1.46 nM

Cc1nnn(-c2ccc(C(F)F)cc2)c1COc1ccc(N2CCNC(C)(C)C2=O)nn1 [Example 10, 1-(6-((1-(4-(Difluoromethyl)phenyl)-4-methyl-1H-1,2,3-triazol-5-yl)methoxy)pyridazin-3-yl)-3,3-dimethylpiperazin-2-one]
Ki: 14.4 nM

Cc1nnn(-c2ccc(C(F)F)cc2)c1COc1ccc(N2CCC(N(C)C)C2)nn1 (stereo not shown) [Example 12, 1-(6-((1-(4-(Difluoromethyl)phenyl)-4-methyl-1H-1,2,3-triazol-5-yl)methoxy)pyridazin-3-yl)-N,N-dimethylpyrrolidin-3-amine]
Ki: 0.89 nM

Cc1nnn(-c2ccc(C(F)F)cc2)c1COc1ccc(N2C(=O)NC(C)(C)C2=O)nn1 [Example 25, 3-(6-((1-(4-(Difluoromethyl)phenyl)-4-methyl-1H-1,2,3-triazol-5-yl)methoxy)pyridazin-3-yl)-5,5-dimethylimidazolidine-2,4-dione]
Ki: 24.4 nM

Cc1nnn(-c2ccc(C(F)F)cc2)c1COc1ccc(N2CCN[C@H](C(=O)N(C)C)C2)nn1 [Example 31, (S)-4-(6-((1-(4-(Difluoromethyl)phenyl)-4-methyl-1H-1,2,3-triazol-5-yl)methoxy)pyridazin-3-yl)-N,N-dimethylpiperazine-2-carboxamide]
Ki: 7.45 nM

Cc1nnn(-c2ccc(C(F)F)cc2)c1COc1ccc(N2CCN[C@H](C(N)=O)C2)nn1 [Example 32, (S)-4-(6-((1-(4-(Difluoromethyl)phenyl)-4-methyl-1H-1,2,3-triazol-5-yl)methoxy)pyridazin-3-yl)piperazine-2-amide]
Ki: 2.94 nM

Cc1nnn(-c2ccc(C(F)F)cc2)c1COc1ccc(N2CCN[C@H](C#N)C2)nn1 [Example 33, (S)-4-(6-((1-(4-(Difluoromethyl)phenyl)-4-methyl-1H-1,2,3-triazol-5-yl)methoxy)pyridazin-3-yl)piperazine-2-carbonitrile]
Ki: 3.31 nM

CNC(=O)[C@@H]1CN(c2ccc(OCc3c(C)nnn3-c3ccc(C(F)F)cc3)nn2)CCO1 [Example 38, (S)-4-(6-((1-(4-(Difluoromethyl)phenyl)-4-methyl-1H-1,2,3-triazol-5-yl)methoxy)pyridazin-3-yl)-N-methylmorpholine-2-carboxamide]
Ki: 2.48 nM

CCNC(=O)C1C2CN(c3ccc(OCc4c(C)nnn4-c4ccc(C(F)F)cc4)nn3)CC21 (stereo not shown) [Example 39, 3-(6-((1-(4-(Difluoromethyl)phenyl)-4-methyl-1H-1,2,3-triazol-5-yl)methoxy)pyridazin-3-yl)-N-ethyl-3-azabicyclo[3.1.0]hexane-6-carboxamide]
Ki: 1.59 nM

CCNC(=O)[C@H]1CCN1c1ccc(OCc2c(C)nnn2-c2ccc(C(F)F)cc2)nn1 [Example 40]
Ki: 33.6 nM

CCNC(=O)[C@H]1CCCN1c1ccc(OCc2c(C)nnn2-c2ccc(C(F)F)cc2)nn1 [Example 41, (R)-1-(6-((1-(4-(Difluoromethyl)phenyl)-4-methyl-1H-1,2,3-triazol-5-yl)methoxy)pyridazin-3-yl)-N-ethylpyrrolidine-2-carboxamide]
Ki: 42.6 nM

CCNC(=O)[C@@H]1CCCN1c1ccc(OCc2c(C)nnn2-c2ccc(C(F)F)cc2)nn1 [Example 42, (S)-1-(6-((1-(4-(Difluoromethyl)phenyl)-4-methyl-1H-1,2,3-triazol-5-yl)methoxy)pyridazin-3-yl)-N-ethylpyrrolidine-2-carboxamide]
Ki: 115 nM

Cc1nnn(-c2ccc(C(F)F)cc2)c1COc1ccc(N2CC(C(=O)Nc3ccccc3)C2)nn1 [Example 47, 1-(6-((1-(4-(Difluoromethyl)phenyl)-4-methyl-1H-1,2,3-triazol-5-yl)methoxy)pyridazin-3-yl)-N-phenylazetidine-3-carboxamide]
Ki: 1.1 nM

Cc1nnn(-c2ccc(C(F)F)cc2)c1COc1ccc(N2CC(C(=O)NCc3ccccc3)C2)nn1 [Example 48, N-Benzyl-1-(6-((1-(4-(difluoromethyl)phenyl)-4-methyl-1H-1,2,3-triazol-5-yl)methoxy)pyridazin-3-yl)azetidine-3-carboxamide]
Ki: 2.38 nM

COCCNC(=O)C1CN(c2ccc(OCc3c(C)nnn3-c3ccc(C(F)F)cc3)nn2)C1 [Example 49, 1-(6-((1-(4-(Difluoromethyl)phenyl)-4-methyl-1H-1,2,3-triazol-5-yl)methoxy)pyridazin-3-yl)-N-(2-methoxyethyl)azetidine-3-carboxamide]
Ki: 6.5 nM

Cc1nnn(-c2ccc(C(F)F)cc2)c1COc1ccc(N2CC(C(=O)NC3CCOC3)C2)nn1 (stereo not shown) [Example 51, 1-(6-((1-(4-(Difluoromethyl)phenyl)-4-methyl-1H-1,2,3-triazol-5-yl)methoxy)pyridazin-3-yl)-N-(tetrahydrofuran-3-yl)azetidine-3-carboxamide]
Ki: 6.17 nM

Cc1nnc(C2CN(c3ccc(OCc4c(C)nnn4-c4ccc(C(F)F)cc4)nn3)C2)o1 [Example 53, 2-(1-(6-((1-(4-(Difluoromethyl)phenyl)-4-methyl-1H-1,2,3-triazol-5-yl)methoxy)pyridazin-3-yl)azetidin-3-yl)-5-methyl-1,3,4-oxadiazole]
Ki: 2.97 nM

CCNC(=O)CC1CN(c2ccc(OCc3c(C)nnn3-c3ccc(C(F)F)cc3)nn2)CCO1 (stereo not shown) [Example 63, 2-(4-(6-((1-(4-(Difluoromethyl)phenyl)-4-methyl-1H-1,2,3-triazol-5-yl)methoxy)pyridazin-3-yl)morpholin-2-yl)-N-ethylacetamide]
Ki: 1.49 nM

Cc1nnn(-c2ccc(C(F)F)cc2)c1COc1ccc(N2CCNCC2=O)nn1 [Example 71, 1-(6-((1-(4-(Difluoromethyl)phenyl)-4-methyl-1H-1,2,3-triazol-5-yl)methoxy)pyridazin-3-yl)piperazin-one]
Ki: 8.86 nM

Cc1nnn(-c2ccc(Cl)cn2)c1COc1ccc(N2CCNC(=O)C2)nn1 [Example 72, 4-(6-((1-(5-Chloropyridin-2-yl)-4-methyl-1H-1,2,3-triazol-5-yl)methoxy)pyridazin-3-yl)piperazin-2-one]
Ki: 0.46 nM

Cc1nnn(-c2ccc(C(F)F)nc2)c1COc1ccc(N2CCNC(=O)C2)nn1 [Example 74, 4-(6-((1-(6-(Difluoromethyl)pyridin-3-yl)-4-methyl-1H-1,2,3-triazol-5-yl)methoxy)pyridazin-3-yl)piperazin-2-one]
Ki: 23.6 nM

Cc1nnn(-c2ccc(C#N)cc2)c1COc1ccc(N2CCNC(=O)C2)nn1 [Example 75, 4-(6-((1-(4-Cyanophenyl)-4-methyl-1H-1,2,3-triazol-5-yl)methoxy)pyridazin-3-yl)piperazin-2-one]
Ki: 40.2 nM
